# Values quoted from earlier work, collected in patent US20210251906A1, “[…]-RELEASE FORMULATIONS” (Mylan Inc., priority 2018, published 2021).
# Key:
# [1] = in vivo
# [2] = in water and in basic and acidic aqueous solutions
structure (smiles),measurement,setting,value
"CC(C)C[C@H](CN)CC(=O)O [Pregabalin, (S)-3-(aminomethyl)-5-methylhexanoic acid]",Elimination half-life,[1],about 6.3 hours
same,Solubility,[2],freely soluble
